Measured values reported in patent publication US12247032B2, “Substituted pyrazolo[1,5-a]pyrimidines as inhibitors of JAK kinases” (Genentech, Inc., priority 2019, dated 2025).
Like-named read-outs stand apart in the source and are kept apart here.

How the values were obtained:
[1] = system: JAK2 pathway (P-STAT5 in TF-1 human erythroleukemia cells + EPO); assay: P-STAT5 TF-1+Erythropoietin (EPO) assay; assay type: cell-based; conditions: TF-1 cells, 30 minutes compound, EPO 30 min, IC50 by four-parameter fit, read-out: Cellular (JAK2 PSTAT5 TF1 + EPO)
Description: (§1) TF-1 human erythroleukemia cells (ATCC®; Manassas, VA; Catalog No. CRL-2003™) were grown in Roswell Park Memorial Institute (RPMI) medium supplemented with 10% heat-inactivated fetal bovine serum (FBS), 2 ng/mL granulocyte-macrophage colony-stimulating factor, 1× non-essential amino acids (NEAA), and 1 mM sodium pyruvate. The day before the assay, the cultures were transferred to Opti-MEM™, 1×NEAA, 1 mM sodium pyruvate, and 0.5% charcoal-stripped FBS (starve medium). Inhibitor stock solutions (5 mM in DMSO) were serially diluted 1:2 in DMSO to generate a 10-point concentration titration (at 500× test concentration), which was further diluted by a 50-fold dilution in Assay Medium (RPMI containing 1×NEAA and 1 mM sodium pyruvate) to generate a 10× concentration titration (in 2% DMSO). The cells (300,000 cells/well in 35 μL of Assay Medium) were seeded in 384-well Greiner plates. Diluted inhibitor at 10× concentration (5 μL) was added to the cells and the plates were incubated for 30 minutes at 37° C. in a humidified incubator. Cells were stimulated with the human recombinant cytokine at the respective EC90 concentrations, as previously determined for each individual lot. For the phosphorylated signal transducer and activator of transcription 6 (P-STAT6) TF-1+Interleukin-13 (IL-13) assay, 10 μL of 250 ng/mL IL-13 (R&D Systems; Minneapolis, MN) was added to the cells, which were then incubated for 10 minutes at 37° C. For the P-STAT5 TF-1+Erythropoietin (EPO) assay, 10 μL of 110 IU/mL EPO (Gibco Life Technologies, Catalog No. PHC2054) was added to the cells, which were then incubated for 30 min at 37° C. For both assays, the incubation was followed by addition to the cells of 5 μL of ice-cold 10× cell lysis buffer (Cell Signaling Technologies; Danvers, MA; Catalog No. 9803S) containing 1 mM phenylmethylsulfonyl fluoride (PMSF). Assay plates were frozen at −80° C. for a minimum of 1 hour. In the IL-13 assay, P-STAT6 was measured by coating goat anti-rabbit (GAR) plates (Meso Scale Discovery [MSD]; Rockville, MD; Catalog No. MSD L21RA-1) with rabbit anti-human total STAT6 antibody (Cell Signaling Technologies; Catalog No. 9362S), incubating the cell lysates in the coated plates overnight at 4° C., and then detecting with mouse anti-P-STAT6 (Tyr641) Clone 16E12 antibody (MilliporeSigma; Burlington, MA; Catalog No. 05-590, custom labeled by MSD with SULFO-tag) using standard MSD plate processing, washing, and detection protocols. In the EPO assay, P-STAT5 was detected using the phospho-STAT5a,b Whole Cell Lysate Kit (MSD; Catalog No. K150IGD-1). The electrochemiluminescence (ECL) signal of wells was read on the MESO SECTOR S600 (MSD) reader.
(§2) Data analysis was performed by subtracting the negative control (cytokine stimulated and 20 μM control inhibitor-treated cells) mean ECL value from the ECL value of all wells, determining percent of control for test compound well ECL values relative to the positive control (cytokine stimulated and DMSO-treated cells) mean ECL value, and determining the IC50 for test compounds with a four-parameter logistic fit model as shown in Equation 4.

[2] = system: JAK1 pathway (P-STAT6 in TF-1 human erythroleukemia cells + IL-13); assay: P-STAT6 TF-1+Interleukin-13 (IL-13) assay; assay type: cell-based; conditions: TF-1 cells, 30 minutes compound, IL-13 10 minutes, IC50 by four-parameter fit, read-out: Cellular PSTAT6 TF-1 + IL13
Description: as §1, §2

SMILES	IC50 [1] [nM]	IC50 [2] [nM]	IC50 ([1]; Homo sapiens, TF-1, 0.5 h) [nM]	IC50 ([2]; Homo sapiens, TF-1, 0.5 h) [nM]
O=C(Nc1cn(Cc2nnn(C3CCNC3)n2)nc1-c1cc(OC(F)F)ccc1OC(F)F)c1cnn2cccnc12 (single isomer, unassigned) [Example 28, N-[3-[2,5-bis(difluoromethoxy)phenyl]-1-[(2-pyrrolidin-3-yltetrazol-5-yl)methyl]pyrazol-4-yl]pyrazolo[1,5-a]pyrimidine-3-carboxamide]	19	7.1		
CNCCn1nnc(Cn2cc(NC(=O)c3cnn4cccnc34)c(-c3cc(OC(F)F)ccc3OC(F)F)n2)n1 [Example 20, N-[3-[2,5-bis(difluoromethoxy)phenyl]-1-[[2-[2-(methylamino)ethyl]tetrazol-5-yl]methyl]pyrazol-4-yl]pyrazolo[1,5-a]pyrimidine-3-carboxamide]			15	45
O=C(Nc1cn(Cc2nnn(C3CCNCC3)n2)nc1-c1cc(OC(F)F)ccc1OC(F)F)c1cnn2cccnc12 [Example 18, N-[3-[2,5-bis(difluoromethoxy)phenyl]-1-[[2-(4-piperidyl)tetrazol-5-yl]methyl]pyrazol-4-yl]pyrazolo[1,5-a]pyrimidine-3-carboxamide]			19	20
CN(C)CCn1nnnc1Cn1cc(NC(=O)c2cnn3cccnc23)c(-c2cc(OC(F)F)ccc2OC(F)F)n1 [Example 17, N-[3-[2,5-bis(difluoromethoxy)phenyl]-1-[[1-[2-(dimethylamino)ethyl]tetrazol-5-yl]methyl]pyrazol-4-yl]pyrazolo[1,5-a]pyrimidine-3-carboxamide]			9.7	2.7
CN1CCC(N2CC(n3nnc(Cn4cc(NC(=O)c5cnn6cccnc56)c(-c5cc(OC(F)F)ccc5OC(F)F)n4)n3)C2)CC1 [Example 38, N-[3-[2,5-bis(difluoromethoxy)phenyl]-1-[[2-[1-(1-methyl-4-piperidyl)azetidin-3-yl]tetrazol-5-yl]methyl]pyrazol-4-yl]pyrazolo[1,5-a]pyrimidine-3-carboxamide]			42	21
CSc1ccc(OC(F)F)c(-c2nn(Cc3nnn(C4CN(CCCN(C)C)C4)n3)cc2NC(=O)c2cnn3cccnc23)c1 [Example 58, N-[3-[2-(difluoromethoxy)-5-methylsulfanyl-phenyl]-1-[[2-[1-[3-(dimethylamino)propyl]azetidin-3-yl]tetrazol-5-yl]methyl]pyrazol-4-yl]pyrazolo[1,5-a]pyrimidine-3-carboxamide]			24	51
CN1CC(n2nnc(Cn3cc(NC(=O)c4cnn5cccnc45)c(-c4cc(OC(F)F)ccc4OC(F)F)n3)n2)C1 [Example 10, N-[3-[2,5-bis(difluoromethoxy)phenyl]-1-[[2-(1-methylazetidin-3-yl)tetrazol-5-yl]methyl]pyrazol-4-yl]pyrazolo[1,5-a]pyrimidine-3-carboxamide]			5.1	4
CN(CCN1CC(n2nnc(Cn3cc(NC(=O)c4cnn5cccnc45)c(-c4cc(OC(F)F)ccc4OC(F)F)n3)n2)C1)C(=O)OC(C)(C)C [Example 31, tert-butyl N-[2-[3-[5-[[3-[2,5-bis(difluoromethoxy)phenyl]-4-(pyrazolo[1,5-a]pyrimidine-3-carbonylamino)pyrazol-1-yl]methyl]tetrazol-2-yl]azetidin-1-yl]ethyl]-N-methyl-carbamate]			8.6	13
CN(C)CCN1CC(n2nnc(Cn3cc(NC(=O)c4cnn5cccnc45)c(-c4cc(OC(F)F)ccc4OC(F)F)n3)n2)C1 [Example 21, N-[3-[2,5-bis(difluoromethoxy)phenyl]-1-[[2-[1-[2-(dimethylamino)ethyl]azetidin-3-yl]tetrazol-5-yl]methyl]pyrazol-4-yl]pyrazolo[1,5-a]pyrimidine-3-carboxamide]			32	40
CN1CCC(n2nnc(Cn3cc(NC(=O)c4cnn5cccnc45)c(-c4cc(OC(F)F)ccc4OC(F)F)n3)n2)CC1 [Example 22]			18	4.8
CN1CC(n2nnc(Cn3cc(NC(=O)c4cnn5cccnc45)c(-c4cc(Cl)ccc4OC(F)F)n3)n2)C1 [Example 7, N-[3-[5-chloro-2-(difluoromethoxy)phenyl]-1-[[2-(1-methylazetidin-3-yl)tetrazol-5-yl]methyl]pyrazol-4-yl]pyrazolo[1,5-a]pyrimidine-3-carboxamide]			13	5
CN(C)[C@H]1C[C@H](N2CC(n3nnc(Cn4cc(NC(=O)c5cnn6cccnc56)c(-c5cc(OC(F)F)ccc5OC(F)F)n4)n3)C2)C1 [Example 70, N-[3-[2,5-bis(difluoromethoxy)phenyl]-1-[[2-[1-[3-(dimethylamino)cyclobutyl]azetidin-3-yl]tetrazol-5-yl]methyl]pyrazol-4-yl]pyrazolo[1,5-a]pyrimidine-3-carboxamide]			12	30
O=C(Nc1cn(Cc2nnnn2C2CNC2)nc1-c1cc(OC(F)F)ccc1OC(F)F)c1cnn2cccnc12 [Example 12, N-[1-[[1-(azetidin-3-yl)tetrazol-5-yl]methyl]-3-[2,5-bis(difluoromethoxy)phenyl]pyrazol-4-yl]pyrazolo[1,5-a]pyrimidine-3-carboxamide]			51	22
CN1CCC(n2nnnc2Cn2cc(NC(=O)c3cnn4cccnc34)c(-c3cc(OC(F)F)ccc3OC(F)F)n2)C1 (stereo not drawn) [Example 26, N-[3-[2,5-bis(difluoromethoxy)phenyl]-1-[[1-(1-methylpyrrolidin-3-yl)tetrazol-5-yl]methyl]pyrazol-4-yl]pyrazolo[1,5-a]pyrimidine-3-carboxamide]			18	11
CN1CC(N2CC(n3nnc(Cn4cc(NC(=O)c5cnn6cccnc56)c(-c5cc(OC(F)F)ccc5OC(F)F)n4)n3)C2)C1 [Example 78, N-[3-[2,5-bis(difluoromethoxy)phenyl]-1-[[2-[1-(1-methylazetidin-3-yl)azetidin-3-yl]tetrazol-5-yl]methyl]pyrazol-4-yl]pyrazolo[1,5-a]pyrimidine-3-carboxamide; formic acid]			47	62
O=C(Nc1cn(Cc2nnn(C3CNC3)n2)nc1-c1cc(Cl)ccc1OC(F)F)c1cnn2cccnc12 [Example 8, N-[1-[[2-(azetidin-3-yl)tetrazol-5-yl]methyl]-3-[5-chloro-2-(difluoromethoxy)phenyl]pyrazol-4-yl]pyrazolo[1,5-a]pyrimidine-3-carboxamide]			13	8.4
CN(C)CCN1CC(n2nnc(Cn3cc(NC(=O)c4cnn5cccnc45)c(-c4cc(Cl)ccc4OC(F)F)n3)n2)C1 [Example 37, N-[3-[5-chloro-2-(difluoromethoxy)phenyl]-1-[[2-[1-[2-(dimethylamino)ethyl]azetidin-3-yl]tetrazol-5-yl]methyl]pyrazol-4-yl]pyrazolo[1,5-a]pyrimidine-3-carboxamide]			16	6.9
CN1CC(n2nnnc2Cn2cc(NC(=O)c3cnn4cccnc34)c(-c3cc(Cl)ccc3OC(F)F)n2)C1 [Example 15, N-[3-[5-chloro-2-(difluoromethoxy)phenyl]-1-[[1-(1-methylazetidin-3-yl)tetrazol-5-yl]methyl]pyrazol-4-yl]pyrazolo[1,5-a]pyrimidine-3-carboxamide]			7.2	3.4
